Experimental data: patent publication US7338950B2, “Amide compounds as ion channel ligands and uses thereof” (Renovis, Inc., priority 2003, dated 2008)

system: VR1 receptor (293 cells expressing capsaicin-insensitive VR1 receptor variants); assay: High throughput screening of VR1 antagonists using a calcium imaging assay (Fura2, pH 5.1 stimulus); conditions: 1 uM compound; inhibition of calcium ion influx;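 note: Fura2 ratiometric fluorescence read every 4 s over 3 min, response taken as peak ratio minus baseline before pre-treatment, compound pre-treatment preceding acid challenge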

Row | Structure (SMILES) | % Inhibition @ 1 uM
1 | N#Cc1cccc(NC(=O)c2ccc(-c3ncccc3Cl)cc2)c1 [Compound 1039] | + (compound exhibited 0-25% inhibition of calcium ion influx induced by capsaicin stimulation)
2 | O=C(Nc1cccc(Cl)c1)c1ccc(-c2ncccc2Cl)c(F)c1 [Compound 1133] | + (compound exhibited 0-25% inhibition of calcium ion influx induced by capsaicin stimulation)
3 | COc1cc(C(=O)Nc2ccc3ncccc3c2)ccc1-c1ncccc1Cl [Compound 1250] | ++++ (compound exhibited 75% or greater inhibition of calcium ion influx induced by capsaicin stimulation)
4 | O=C(Nc1ccc(OCc2ccccc2)cc1)c1ccc(-c2ncccc2Cl)cn1 [Compound 1349] | + (compound exhibited 0-25% inhibition of calcium ion influx induced by capsaicin stimulation)
5 | O=C(Nc1ccc2c(c1)OCCO2)c1ccc(-c2ncccc2Cl)cc1 [Compound 1018] | ++ (compound exhibited 25-50% inhibition of calcium ion influx induced by capsaicin stimulation)
6 | O=C(Nc1ccccc1O)c1ccc(-c2ncccc2Cl)cc1F [Compound 1084] | + (compound exhibited 0-25% inhibition of calcium ion influx induced by capsaicin stimulation)
7 | CCn1c2ccccc2c2cc(NC(=O)c3ccc(-c4ccccc4Cl)c(OC)c3)ccc21 [Compound 1251] | + (compound exhibited 0-25% inhibition of calcium ion influx induced by capsaicin stimulation)
8 | CN1CCCc2ccc(NC(=O)c3ccc(-c4ncccc4Cl)cc3)cc21 [Compound 1304] | + (compound exhibited 0-25% inhibition of calcium ion influx induced by capsaicin stimulation)
9 | O=C(Nc1ccc(Cl)c(C(=O)O)c1)c1ccc(-c2ncccc2Cl)c(F)c1 [Compound 1183] | ++++ (compound exhibited 75% or greater inhibition of calcium ion influx induced by capsaicin stimulation)
10 | CCCCc1ccc(NC(=O)c2ccc(-c3ncccc3Cl)c(OC)c2)cc1 [Compound 1221] | ++ (compound exhibited 25-50% inhibition of calcium ion influx induced by capsaicin stimulation)
11 | COc1ccc(NC(=O)c2ccc(-c3ncccc3Cl)c(OC)c2)cn1 [Compound 1247] | ++ (compound exhibited 25-50% inhibition of calcium ion influx induced by capsaicin stimulation)
12 | CCC1c2ccccc2-c2cc(NC(=O)c3ccc(-c4ncccc4Cl)cc3)ccc21 (stereo not drawn) [Compound 1072] | ++ (compound exhibited 25-50% inhibition of calcium ion influx induced by capsaicin stimulation)
13 | O=C(Nc1ccccc1CCO)c1ccc(-c2ncccc2Cl)cc1 [Compound 1040] | +++ (compound exhibited 50-75% inhibition of calcium ion influx induced by capsaicin stimulation)
14 | CCN(CC)c1ccc(NC(=O)c2ccc(-c3ncccc3Cl)cc2)cc1 [Compound 1061] | ++++ (compound exhibited 75% or greater inhibition of calcium ion influx induced by capsaicin stimulation)
15 | CC(C)(C)c1ccc(NC(=O)c2ccc(-c3ncccc3Cl)cc2F)cc1 [Compound 1103] | + (compound exhibited 0-25% inhibition of calcium ion influx induced by capsaicin stimulation)
16 | O=C(Nc1cccnc1Cl)c1ccc(-c2ncccc2Cl)cc1F [Compound 1118] | + (compound exhibited 0-25% inhibition of calcium ion influx induced by capsaicin stimulation)
17 | O=C(Nc1cc[nH]n1)c1ccc(-c2ncccc2Cl)cc1 [Compound 1026] | + (compound exhibited 0-25% inhibition of calcium ion influx induced by capsaicin stimulation)
18 | O=C(Nc1ccc([N+](=O)[O-])cc1)c1ccc(-c2ncccc2Cl)cc1 [Compound 1073] | ++++ (compound exhibited 75% or greater inhibition of calcium ion influx induced by capsaicin stimulation)
19 | CC(C)Oc1cccc(NC(=O)c2ccc(-c3ncccc3Cl)cn2)c1 [Compound 1362] | + (compound exhibited 0-25% inhibition of calcium ion influx induced by capsaicin stimulation)
20 | CC(C)Oc1cccc(NC(=O)c2ccc(-c3ncccc3Cl)cc2)c1 [Compound 1295] | + (compound exhibited 0-25% inhibition of calcium ion influx induced by capsaicin stimulation)
21 | O=C(Nc1ccc2ncccc2c1)c1ccc(-c2ncccc2Cl)c(F)c1 [Compound 1173] | ++++ (compound exhibited 75% or greater inhibition of calcium ion influx induced by capsaicin stimulation)
22 | CC(C)(C)NC(=O)c1ccc(-c2ncccc2Cl)c(F)c1 [Compound 1127] | + (compound exhibited 0-25% inhibition of calcium ion influx induced by capsaicin stimulation)
23 | O=C(Nc1ccc(F)c(F)c1)c1ccc(-c2ncccc2Cl)cn1 [Compound 1363] | ++++ (compound exhibited 75% or greater inhibition of calcium ion influx induced by capsaicin stimulation)
24 | COc1cc(NC(=O)c2ccc(-c3ncccc3Cl)cn2)cc(OC)c1OC [Compound 1356] | + (compound exhibited 0-25% inhibition of calcium ion influx induced by capsaicin stimulation)
25 | COc1cc(C(=O)Nc2ccnc(Cl)c2)ccc1-c1ncccc1Cl [Compound 1248] | + (compound exhibited 0-25% inhibition of calcium ion influx induced by capsaicin stimulation)
26 | Cc1cc(NC(=O)c2ccc(-c3ncccc3Cl)cc2F)nc(C)n1 [Compound 1123] | +++ (compound exhibited 50-75% inhibition of calcium ion influx induced by capsaicin stimulation)

Row | Structure (SMILES) | % Inhibition @ 1 uM
27 | CCOC(=O)c1ccc(NC(=O)c2ccc(-c3ncccc3Cl)cn2)cc1 [Compound 1350] | + (compound exhibited 0-25% inhibition of calcium ion influx induced by capsaicin stimulation)
28 | CCOc1ccc(NC(=O)c2ccc(-c3ncccc3Cl)cc2)cc1 [Compound 1298] | + (compound exhibited 0-25% inhibition of calcium ion influx induced by capsaicin stimulation)
29 | O=C(Nc1ccc(OC(F)(F)F)cc1)c1ccc(-c2ncccc2Cl)c(F)c1 [Compound 1192] | ++ (compound exhibited 25-50% inhibition of calcium ion influx induced by capsaicin stimulation)
30 | N#Cc1cccc(NC(=O)c2ccc(-c3ncccc3Cl)c(F)c2)c1 [Compound 1141] | ++++ (compound exhibited 75% or greater inhibition of calcium ion influx induced by capsaicin stimulation)
31 | COc1cc(C(=O)Nc2ccc(C#N)c(Cl)c2)ccc1-c1ncccc1Cl [Compound 1265] | ++++ (compound exhibited 75% or greater inhibition of calcium ion influx induced by capsaicin stimulation)
32 | O=C(Nc1ccc(C(F)(F)F)cc1)c1ccc(-c2ncccc2Cl)cc1 [Compound 1035] | ++++ (compound exhibited 75% or greater inhibition of calcium ion influx induced by capsaicin stimulation)
33 | COc1cc(C(=O)Nc2ccc(OC)c(C(F)(F)F)c2)ccc1-c1ncccc1Cl [Compound 1275] | ++ (compound exhibited 25-50% inhibition of calcium ion influx induced by capsaicin stimulation)
34 | O=C(Nc1ccc2ncccc2c1)c1ccc(-c2ncccc2Cl)cc1 [Compound 1071] | + (compound exhibited 0-25% inhibition of calcium ion influx induced by capsaicin stimulation)
35 | O=C(Nc1nccs1)c1ccc(-c2ncccc2Cl)cc1 [Compound 1055] | + (compound exhibited 0-25% inhibition of calcium ion influx induced by capsaicin stimulation)
36 | Cc1ccnc(NC(=O)c2ccc(-c3ncccc3Cl)cn2)c1 [Compound 1335] | + (compound exhibited 0-25% inhibition of calcium ion influx induced by capsaicin stimulation)
37 | COc1ccccc1NC(=O)c1ccc(-c2ncccc2Cl)c(OC)c1 [Compound 1211] | ++ (compound exhibited 25-50% inhibition of calcium ion influx induced by capsaicin stimulation)
38 | COc1ccc(NC(=O)c2ccc(-c3ncccc3Cl)cc2)cn1 [Compound 1049] | + (compound exhibited 0-25% inhibition of calcium ion influx induced by capsaicin stimulation)
39 | O=C(Nc1ccc(F)c(F)c1)c1ccc(-c2ncccc2Cl)cc1 [Compound 1296] | + (compound exhibited 0-25% inhibition of calcium ion influx induced by capsaicin stimulation)
40 | Cc1ccc(NC(=O)c2ccc(-c3ncccc3Cl)c(F)c2)c(C)c1 [Compound 1145] | ++++ (compound exhibited 75% or greater inhibition of calcium ion influx induced by capsaicin stimulation)
41 | CCN(CC)CCOC(=O)c1ccc(NC(=O)c2ccc(-c3ncccc3Cl)cc2)cc1 [Compound 1282] | + (compound exhibited 0-25% inhibition of calcium ion influx induced by capsaicin stimulation)
42 | Cc1cc(NC(=O)c2ccc(-c3ncccc3Cl)cn2)nc(C)n1 [Compound 1343] | + (compound exhibited 0-25% inhibition of calcium ion influx induced by capsaicin stimulation)
43 | CCCCc1ccc(NC(=O)c2ccc(-c3ncccc3Cl)cn2)cc1 [Compound 1319] | +++ (compound exhibited 50-75% inhibition of calcium ion influx induced by capsaicin stimulation)
44 | O=C(Nc1ccc2ccccc2c1)c1ccc(-c2ncccc2Cl)cc1 [Compound 1074] | ++++ (compound exhibited 75% or greater inhibition of calcium ion influx induced by capsaicin stimulation)
45 | COc1cccc(NC(=O)c2ccc(-c3ncccc3Cl)c(OC)c2)c1 [Compound 1213] | ++ (compound exhibited 25-50% inhibition of calcium ion influx induced by capsaicin stimulation)
46 | O=C(Nc1ccccc1Cl)c1ccc(-c2ncccc2Cl)cn1 [Compound 1314] | ++++ (compound exhibited 75% or greater inhibition of calcium ion influx induced by capsaicin stimulation)
47 | N#Cc1ccccc1NC(=O)c1ccc(-c2ncccc2Cl)cc1 [Compound 1028] | + (compound exhibited 0-25% inhibition of calcium ion influx induced by capsaicin stimulation)
48 | O=C(Nc1ccc(C(F)(F)F)cc1)c1ccc(-c2ncccc2Cl)c(F)c1 [Compound 1152] | ++ (compound exhibited 25-50% inhibition of calcium ion influx induced by capsaicin stimulation)
49 | Cc1cc(C)nc(NC(=O)c2ccc(-c3ncccc3Cl)cn2)c1 [Compound 1329] | + (compound exhibited 0-25% inhibition of calcium ion influx induced by capsaicin stimulation)
50 | O=C(Nc1ncc(C(F)(F)F)cc1Cl)c1ccc(-c2ncccc2Cl)cc1F [Compound 1115] | + (compound exhibited 0-25% inhibition of calcium ion influx induced by capsaicin stimulation)
51 | O=C(O)c1cccc(NC(=O)c2ccc(-c3ncccc3Cl)c(F)c2)c1 [Compound 1182] | + (compound exhibited 0-25% inhibition of calcium ion influx induced by capsaicin stimulation)
